Values of other authors as cited in patent US20120141587A1, “COMPOSITIONS AND METHODS FOR TREATMENT OR PREVENTION OF POST-OPERATIVE ORGAN OR TISSUE INFLAMMATION” (priority 2009, published 2012).

Tests used:
[1] = tested on: atrial fibrillation; conditions: instilled into a canine's pericardial sac; Ayers et al. 1996
[2] = tested on: inducible atrial flutter; conditions: oral; canine sterile pericarditis model; Goldstein et al. 2007

## CCCCc1oc2ccccc2c1C(=O)c1cc(I)c(OCCN(CC)CC)c(I)c1 [amiodarone]
[1]
  effect on atrial fibrillation: effectiveness in suppressing atrial fibrillation

## C[C@]12C=CC(=O)C=C1CC[C@@H]1[C@@H]2C(=O)C[C@@]2(C)[C@H]1CC[C@]2(O)C(=O)CO [prednisone]
[2]
  effect on inducible atrial flutter: prevent inducible atrial flutter
